Where two headings read alike, the source gives them in different places.
Assays:
Sprague-Dawley rats [1] = experiment: Ventricular arrhythmias after re-circulation; assay type: in vivo, rat; details: 5 mg/kg p.o.
Method: (§1) Ventricular arrhythmias after coronary artery ligation in the acute phase or during the period of re-circulation
(§2) Sprague-Dawley rats were subjected to ligation of the left coronary artery according to the method of Clark et al. in J. Pharmacol. Methods 3, 357-368, 1980. The drugs were administered by gastric tube 30 minutes before the ligation. By means of a continuous electrocardiographic recording, the ventricular arrhythmias such as ectopic beats (EB), ventricular tachycardia (VT), ventricular fibrillation (VF) for 30 minutes after ligation, were recorded.

post-oligoemic rats = experiment: Transient cerebral oligoemia in the rat, cerebral water, K+ and Ca++ content; assay type: in vivo; details: for overall activity in cerebral oligoemia: p.o.
Method: Transient cerebral oligoemia in the rat
The method described by Borzeix in Circulation et Metabolisme du Cerveau 1, 63-79, John Libbey Eurotext Publ. […] The animals were treated by the oral route with the tested drugs twice a day, starting one hour after the ligation and for 3 days, in scalar doses.
The last dose, at the 71th hour after the occlusion, preceeded by one hour the sacrifice of the animal, whose brain was subjected to the determination of the H2 O, K^+ and Ca^++ content.

Sprague-Dawley rats [2] = experiment: Ventricular arrhythmias during coronary artery ligation period; assay type: in vivo, rat; parameters: EBs, mean value of indices + SEM / VT, mean value of indices + SEM / VF, mean value of indices + SEM: scale not given here
Method: as §1, §2

Rat thoracic aorta = experiment: Inhibition of the contractile response of rat thoracic aorta strips in vitro; details: for EC50: Rattus norvegicus
Method: 1. Inhibition of the contractile response of arterial vessels in vitro
Aortic strips (3 mm wide) were dissected from rat thoracic aorta and bathed in a Krebs-Henseleit solution bubbled with O2 :CO2 (95:5) at 38° C., under a tension of 2 g. After a 30-minutes stabilization period, a contraction was induced by adding either KCl (118 mM) or noradrenaline (10^-5 M.l^-1) in a calcium-free medium (Na EDTA 0.1 mM.l^-1) or noradrenaline (10^-5 M.l^-1) after readmission of calcium (CaCl2 1.25 mM.l^-1).

[3] = Pharmacokinetics and bioavailability in dogs; assay type: in vivo; details: in vivo, 10 mg/kg, dog
Method: YS 201 hydrochloride was intravenously and orally administered to dogs at 1 and 10 mg/kg respectively.

SHR aorta = SHR aorta pretreatment study (PE or K+ contraction); parameters: species or system spontaneously hypertensive rat (SHR)
Method: 1.3. SHR aorta--Pretreatment study
SHR aorta were treated with either PE(1 μM) or high potassium (K^+, 80 mM) and the resulting contraction was allowed to sustain for 15 Minutes. After wash out and equilibration (1 hour), tissues were pretreated with a single concentration of either YS 201 or nifedipine. After a 30-minutes equilibration time, tissues were again challenged with either PE or K^+ and the resultant contraction compared to the initial contraction. Contractile effect was measured at 15 minutes after the addition of the agonist (PE or K^+).

[4] = noradrenaline 10^-5 M.l^-1, calcium-free medium, read-out: EC50, NA - Ca++ contraction, rat aorta
[5] = noradrenaline 10^-5 M.l^-1 after readmission of calcium (CaCl2 1.25 mM.l^-1), read-out: EC50, NA + Ca++ contraction, rat aorta

COc1ccc([C@@H]2Sc3ccccc3N(CCN(C)C)C(=O)[C@@H]2OC(C)=O)cc1 [diltiazem, reference compound]
Death rate % (Sprague-Dawley rats [1]): 27.3% | EBs, mean value of indices + SEM (Sprague-Dawley rats [1]): 68.9 ± 32.12 | VF % (Sprague-Dawley rats [1]): 45.5% | VF, mean value of indices + SEM (Sprague-Dawley rats [1]): 8.8 ± 4.64 | VT, mean value of indices + SEM (Sprague-Dawley rats [1]): 4.2 ± 2.54 | overall activity in cerebral oligoemia (post-oligoemic rats): good activity

COC(=O)C1=C(C)NC(C)=C(C(=O)OCCN(C)Cc2ccccc2)C1c1cccc([N+](=O)[O-])c1 (stereo not drawn) [nicardipine]
Cerebral content of Ca++ (post-oligoemic rats; 1 mg/kg p.o.): 18.4 ± 7.04 mmol · kg^-1 dry weig | Cerebral content of K+ (post-oligoemic rats; 1 mg/kg p.o.): 460.0 ± 18.96 mmol · kg^-1 dry weig | Cerebral content of Ca++ (post-oligoemic rats; 3 mg/kg p.o.): 19.4 ± 5.0 mmol · kg^-1 dry weig | Cerebral content of H2O (post-oligoemic rats; 3 mg/kg p.o.): 79.2 ± 0.42% | overall activity in cerebral oligoemia (post-oligoemic rats): fail | Death rate % (Sprague-Dawley rats [2]; 0.5 mg/kg p.o.): 0% | EBs, mean value of indices + SEM (Sprague-Dawley rats [2]; 0.5 mg/kg p.o.): 10.9 | VF % (Sprague-Dawley rats [2]; 0.5 mg/kg p.o.): 66.7% | VF, mean value of indices + SEM (Sprague-Dawley rats [2]; 0.5 mg/kg p.o.): 2.5 | VT, mean value of indices + SEM (Sprague-Dawley rats [2]; 0.5 mg/kg p.o.): 2.5 | Death rate % (Sprague-Dawley rats [2]; 1.0 mg/kg p.o.): 33.3% | EBs, mean value of indices + SEM (Sprague-Dawley rats [2]; 1.0 mg/kg p.o.): 22.0 | VF % (Sprague-Dawley rats [2]; 1.0 mg/kg p.o.): 100% | VF, mean value of indices + SEM (Sprague-Dawley rats [2]; 1.0 mg/kg p.o.): 0.9 | VT, mean value of indices + SEM (Sprague-Dawley rats [2]; 1.0 mg/kg p.o.): 0.5 | Death rate % (Sprague-Dawley rats [2]; 2.0 mg/kg p.o.): 25.0% | EBs, mean value of indices + SEM (Sprague-Dawley rats [2]; 2.0 mg/kg p.o.): 31.9 | VF % (Sprague-Dawley rats [2]; 2.0 mg/kg p.o.): 75% | VF, mean value of indices + SEM (Sprague-Dawley rats [2]; 2.0 mg/kg p.o.): 1.2 | VT, mean value of indices + SEM (Sprague-Dawley rats [2]; 2.0 mg/kg p.o.): 0.7 | EC50 (Rat thoracic aorta; [4]): 100 µM | AUC ([3]; po, same dose, read-out: AUC (converted)): 1280 ng·h/mL | Cmax ([3]; oral, read-out: maximum concentration (Cmax)): 220 ng/mL

COC(=O)C1=C(C)NC(C)=C(C(=O)OC)C1c1ccccc1[N+](=O)[O-] [nifedipine]
Death rate % (Sprague-Dawley rats [2]; 1.0 mg/kg p.o.): 0% | EBs, mean value of indices + SEM (Sprague-Dawley rats [2]; 1.0 mg/kg p.o.): 70.0 ± 24.72 | VF % (Sprague-Dawley rats [2]; 1.0 mg/kg p.o.): 80% | VF, mean value of indices + SEM (Sprague-Dawley rats [2]; 1.0 mg/kg p.o.): 1.1 ± 0.55 | VT, mean value of indices + SEM (Sprague-Dawley rats [2]; 1.0 mg/kg p.o.): 4.4 ± 2.22 | Death rate % (Sprague-Dawley rats [2]; 1.5 mg/kg p.o.): 20.0% | EBs, mean value of indices + SEM (Sprague-Dawley rats [2]; 1.5 mg/kg p.o.): 40.5 ± 20.19 | VF % (Sprague-Dawley rats [2]; 1.5 mg/kg p.o.): 60% | VF, mean value of indices + SEM (Sprague-Dawley rats [2]; 1.5 mg/kg p.o.): 1.7 ± 0.77 | VT, mean value of indices + SEM (Sprague-Dawley rats [2]; 1.5 mg/kg p.o.): 2.1 ± 1.75 | inhibition of K+-induced contractions, SHR aortic strips (SHR aorta): extremely potent inhibitors

COCCOC(=O)C1=C(C)NC(C)=C(C(=O)OC(C)C)C1c1cccc([N+](=O)[O-])c1 (stereo not drawn) [nimodipine]
Cerebral content of K+ (post-oligoemic rats; 0.5 mg/kg p.o.): 442.0 ± 22.40 mmol · kg^-1 dry weig | Cerebral content of H2O (post-oligoemic rats; 1.5 mg/kg p.o.): 79.3 ± 0.40% | overall activity in cerebral oligoemia (post-oligoemic rats): fail | EC50 (Rat thoracic aorta; [4]): 100 µM | EC50 (Rat thoracic aorta; [5]): 100 µM

CCOC(=O)C1=C(C)NC(C)=C(C(=O)OC)C1c1cccc([N+](=O)[O-])c1 (stereo not drawn) [nitrendipine]
EC50 (Rat thoracic aorta; [5]): 100 µM | activity on contractions induced by noradrenaline in Ca++-free medium vs YS 201 (Rat thoracic aorta; rat aorta): slightly more active than YS 201

COc1ccc(CCN(C)CCCC(C#N)(c2ccc(OC)c(OC)c2)C(C)C)cc1OC (stereo not drawn) [verapamil]
overall activity in cerebral oligoemia (post-oligoemic rats): good activity

From patent US4826856A, “Calcium antagonistic dihydropyridine derivative” (Yason s.r.l., priority 1985, dated 1989)
